Experimental data published in patent publication US20150315188A1, “COMPOUNDS AND METHODS FOR TREATMENT OF HYPERTENSION” (MEDIVATION TECHNOLOGIES, INC., priority 2012, published 2015).

How the values were obtained:
Parameters in all cases: purchased Milipore (Millipore)
[1] = molecular target: T1, Human adrenergic α1B receptor (Homo sapiens, UniProt P35368); assay: Radioligand binding, adrenergic α1B (Protocol Group B); conditions: Protocol Group B; for Percentage inhibition of ligand binding, Adrenergic α1B (0.1 μM) / inhibition at 0.1 µM: 0.1 μM compound; for inhibition at 0.3 µM / Percentage inhibition of ligand binding, Adrenergic α1B (0.3 μM): 0.3 μM compound; for inhibition at 0.3 µM: read-out: Percentage inhibition of ligand binding, Adrenergic α1B (0.3 μM); for Ki: estimated Ki; for inhibition at 0.1 µM: read-out: Percentage inhibition of ligand binding, Adrenergic α1B (0.1 μM)
T1 sequence (P35368 1-520): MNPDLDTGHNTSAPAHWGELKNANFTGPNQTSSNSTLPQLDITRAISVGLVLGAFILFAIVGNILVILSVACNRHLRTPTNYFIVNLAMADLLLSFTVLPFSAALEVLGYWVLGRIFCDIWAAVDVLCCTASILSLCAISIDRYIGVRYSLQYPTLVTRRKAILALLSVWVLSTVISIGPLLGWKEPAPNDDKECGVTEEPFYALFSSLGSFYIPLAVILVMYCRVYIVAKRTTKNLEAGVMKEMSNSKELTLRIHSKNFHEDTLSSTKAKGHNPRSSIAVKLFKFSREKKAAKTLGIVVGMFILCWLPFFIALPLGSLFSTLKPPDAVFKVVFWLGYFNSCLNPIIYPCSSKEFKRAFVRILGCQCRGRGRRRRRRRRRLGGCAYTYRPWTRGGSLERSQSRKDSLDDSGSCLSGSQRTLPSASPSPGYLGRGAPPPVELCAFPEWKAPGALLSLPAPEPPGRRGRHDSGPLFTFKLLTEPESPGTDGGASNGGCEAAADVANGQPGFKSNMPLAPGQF
Method in brief: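 Recombinant human α1B membranes incubated with test compound and 0.3 nM [3H]prazosin, 60 min at 25 °C, in 50 mM Tris-HCl pH 7.4, 10 mM MgCl2, 1 mM EDTA; nonspecific binding with 10 μM prazosin. Filter-bound radioactivity counted; values are % inhibition of specific binding or estimated Ki.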

[2] = molecular target: T2, Human adrenergic α2B receptor (Homo sapiens, UniProt P18089); assay: Radioligand binding, adrenergic α2B (Protocol Group B); conditions: for Percentage inhibition of ligand binding, Adrenergic α2B (10 nM) / inhibition at 0.01 µM: 10 nM compound; for Percentage inhibition of ligand binding, Adrenergic α2B (10 nM): 0.01 µM; for inhibition at 0.03 µM / Percentage inhibition of ligand binding, Adrenergic α2B (30 nM): 30 nM compound; for inhibition at 0.03 µM: read-out: Percentage inhibition of ligand binding, Adrenergic α2B (30 nM); for inhibition at 0.1 µM: read-out: Percentage inhibition of ligand binding, Adrenergic α2B (0.1 μM); for Ki: estimated Ki, read-out: Ki α2B; for inhibition at 0.01 µM: read-out: Percentage inhibition of ligand binding, Adrenergic α2B (10 nM); for Percentage inhibition of ligand binding, Adrenergic α2B (30 nM): 0.03 µM
T2 sequence (P18089 1-450): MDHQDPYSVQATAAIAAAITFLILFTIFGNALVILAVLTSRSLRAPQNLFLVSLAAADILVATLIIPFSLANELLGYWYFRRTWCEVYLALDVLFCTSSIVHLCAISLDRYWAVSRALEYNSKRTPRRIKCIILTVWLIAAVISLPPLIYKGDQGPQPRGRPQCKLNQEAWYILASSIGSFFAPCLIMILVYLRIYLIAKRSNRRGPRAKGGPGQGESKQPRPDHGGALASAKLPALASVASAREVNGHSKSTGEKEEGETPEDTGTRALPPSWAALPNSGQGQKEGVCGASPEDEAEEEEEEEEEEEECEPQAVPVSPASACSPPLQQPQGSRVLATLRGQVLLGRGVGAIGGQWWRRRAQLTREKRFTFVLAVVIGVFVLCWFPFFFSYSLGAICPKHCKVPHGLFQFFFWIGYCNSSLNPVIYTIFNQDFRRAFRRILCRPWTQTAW
Method in brief: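 Recombinant human α2B receptor membranes incubated with compounds in 50 mM Tris-HCl pH 7.4, 5 mM MgCl2, 1 mM CaCl2, 0.2% BSA, 1% DMSO vehicle. Non-specific binding defined with 10 μM rauwolscine. Values are percent inhibition of specific binding or estimated Ki.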

[3] = molecular target: T3, Human adrenergic α2A receptor (Homo sapiens, UniProt P08913); assay: Radioligand binding, adrenergic α2A (Protocol Group B); conditions: Protocol Group B; for Percentage inhibition of ligand binding, Adrenergic α2A (0.1 μM) / inhibition at 0.1 µM: 0.1 μM compound; for Percentage inhibition of ligand binding, Adrenergic α2A (0.3 μM) / inhibition at 0.3 µM: 0.3 μM compound; for Ki: estimated Ki; for inhibition at 0.1 µM: read-out: Percentage inhibition of ligand binding, Adrenergic α2A (0.1 μM); for inhibition at 0.3 µM: read-out: Percentage inhibition of ligand binding, Adrenergic α2A (0.3 μM)
T3 sequence (P08913 1-465): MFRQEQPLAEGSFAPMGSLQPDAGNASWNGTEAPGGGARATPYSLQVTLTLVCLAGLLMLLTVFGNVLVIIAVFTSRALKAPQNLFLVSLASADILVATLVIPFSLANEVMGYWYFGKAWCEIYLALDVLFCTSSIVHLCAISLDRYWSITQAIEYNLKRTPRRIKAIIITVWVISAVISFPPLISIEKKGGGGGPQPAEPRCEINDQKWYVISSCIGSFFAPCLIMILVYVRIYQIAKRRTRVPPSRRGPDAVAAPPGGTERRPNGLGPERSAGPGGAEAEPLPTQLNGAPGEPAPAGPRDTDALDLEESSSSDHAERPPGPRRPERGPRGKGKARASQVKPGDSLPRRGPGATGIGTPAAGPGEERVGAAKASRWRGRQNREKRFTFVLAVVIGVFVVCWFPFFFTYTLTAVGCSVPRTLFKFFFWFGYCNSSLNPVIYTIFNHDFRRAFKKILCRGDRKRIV
Method in brief: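 Membranes from recombinant cells expressing the receptor, in 50 mM Tris-HCl pH 7.4 with 5 mM MgCl2, 1 mM CaCl2, 0.2% BSA; compounds incubated with 2 nM [^3H]MK-912 for 60 min at 25° C. Nonspecific binding defined by 10 μM rauwolscine; filtration, counting; percent inhibition of specific binding, or estimated Ki.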

[4] = 0.1 μM compound, Protocol Group B

| Percentage inhibition of ligand binding, Adrenergic α1B (0.1 μM) [1] | inhibition at 0.3 µM [1] | Ki [1] | Percentage inhibition of ligand binding, Adrenergic α2B (10 nM) ([2]; Protocol Group B) | inhibition at 0.03 µM ([2]; Protocol Group B) | inhibition at 0.1 µM [2, 4] | Ki ([2]; Protocol Group B) | Percentage inhibition of ligand binding, Adrenergic α2A (0.1 μM) [3] | Percentage inhibition of ligand binding, Adrenergic α2A (0.3 μM) [3] | Ki [3] | inhibition at 0.1 µM [1] | Percentage inhibition of ligand binding, Adrenergic α2B, 0.1 nM ([2]; 0.1 nM compound, concentration series, 0.0001 µM) | Percentage inhibition of ligand binding, Adrenergic α1B (0.3 μM) [1] | inhibition at 0.01 µM ([2]; Protocol Group B) | inhibition at 0.1 µM [3] | inhibition at 0.3 µM [3] | Percentage inhibition of ligand binding, Adrenergic α2B (30 nM) ([2]; Protocol Group B) | Percentage inhibition of ligand binding, Adrenergic α2B (0.1 μM) ([2]; 0.1 μM compound, Protocol Group B, 0.1 µM) | Compound |
| --- | --- | --- | --- | --- | --- | --- | --- | --- | --- | --- | --- | --- | --- | --- | --- | --- | --- | --- |
| 40% | 71% | 63.7 nM | 71% | 87% | 95% | 2.2 nM | 47% | 70% | 114 nM | – | – | – | – | – | – | – | – | Cc1cc(C)c2c(c1)c1c(n2CC(C)(O)c2cccnc2)CCN2CCCC12 (single isomer, unassigned) [44a] |
| – | 87% | 18.2 nM | 60% | 81% | 89% | 6.5 nM | – | 39% | 305 nM | 70% | −28% | – | – | – | – | – | – | Cc1ccc2c(c1)c1c(n2CC(O)c2ccncc2F)CCN2CCCC12 (single isomer, unassigned) [14a] |
| – | – | 54 nM | – | 89% | 97% | 2.3 nM | – | – | 55 nM | 44% | – | 70% | 74% | 37% | 63% | – | – | CCCOC(Cn1c2c(c3cc(C)ccc31)CN(C)CC2)c1ccncc1 (single isomer, unassigned) [42a] |
| 14% | – | 278 nM | 71% | – | – | 2.1 nM | 14% | 28% | 374 nM | – | – | 30% | – | – | – | 89% | 98% | CCOC(Cn1c2c(c3cc(C)ccc31)CN(C)CC2)c1ccncc1 (single isomer, unassigned) [43b] |
| 84% | 88% | 2.4 nM | – | 90% | – | 0.95 nM | – | – | 2.2 nM | – | – | – | 91% | 91% | 88% | – | – | Cc1ccc2c(c1)c1c(n2CC(OCC2CCC2)c2ccncc2)CCN2CCCC12 (single isomer, unassigned) [138a] |
| – | 94% | 8.15 nM | – | 94% | 94% | 1.25 nM | – | – | 31.1 nM | 85% | – | – | 93% | 73% | 82% | – | – | Cc1ccc2c(c1)c1c(n2CC(C)(O)c2ccnc(F)c2)CCN2CCCC12 (single isomer, unassigned) [48a] |
| 64% | – | – | 84% | – | – | 0.69 nM | 79% | 84% | 3.1 nM | – | – | 81% | – | – | – | 83% | – | OC(Cn1c2c(c3cc(Cl)cc(F)c31)C1CCCN1CC2)c1ccncc1 (single isomer, unassigned) [135b] |
| 47% | – | 42.7 nM | – | – | 97% | 0.77 nM | 81% | 93% | 10.6 nM | – | – | 79% | – | – | – | 96% | – | Cc1cc(F)c2c(c1)c1c(n2CC(C)(O)c2cccnc2)CCN2CCCC12 (stereo not shown) [Compound No. 79a] |
